Test results as given in patent publication US12455218B2, “Methods and compositions for reversing platelet clumping” (Truvian Sciences, Inc., priority 2019, dated 2025).
“Also recorded” adds a separate entry of the source.

How the values were obtained:
Format in all cases: cell-based
[1] = tested on: platelet clumps in LiHep blood samples; assay: Platelet count per field of view in blood smears of LiHep blood, acridine orange (AO) stain; conditions: for declumping activity / increase in platelet count due to reversal of platelet clumping: Example 8, FIG. 7 and 8, LiHep blood
Protocol: Particularly, fresh venipuncture blood samples were collected into EDTA and LiHep blood collection tubes as described above. Concentrated EDTA was dried for at least one hour at room temperature in microcentrifuge tubes using a vacuum drying oven. […] This sample was pulse vortexed with three, ten second bursts at the maximum vortex setting. […] This sample was sonicated in a water bath sonicator for 1 minute. […] This sample was pipette mixed using a Tecan Carvo Omni™ automated pipettor. To mix, 150 uL of sample was aspirated and dispensed at 1 mL/s 0.5 mm from the bottom of the tube. This mixing cycle was repeated 30 times. All samples were then stained using an acridine orange (AO). AO was added to blood sample at a final concentration of 10 ug/mL, pipette mixed and incubated for 5 minutes at room temperature. A standard blood smear was performed on all samples. A coverslip was placed on top of the sample immediately following the blood smear to prevent sample drying out. Cells were imaged using the fluorescence setting on an Echo Revolve™ microscope. AO is a pH-sensitive cationic dye. When bound to double-stranded DNA (for example, in the nuclear compartment), the dye fluoresces green with an excitation maximum at 502 nm and emission maximum at 525 nm. When bound to single stranded DNA and RNA (for example, in the cytoplasm) or when the dye is in an acidic environment (for example, in lysosomes), the dye fluoresces red with an excitation maximum at 460 nm and emission maximum at 650 nm. […] Between five to eight different fields of view were captured. Images were analyzed using Image J and the number of platelets present in each field of view was manually counted. Error bars indicate standard deviation of the data set.
Particularly, fresh venipuncture blood samples were collected into EDTA and LiHep blood collection tubes as described above. Concentrated EDTA was dried for at least one hour at room temperature in microcentrifuge tubes using a vacuum drying oven. […] Both samples were pulse vortexed with three, ten-second bursts at the maximum vortex setting. Samples were then stained using acridine orange (AO). AO was added to blood sample at a final concentration of 10 ug/mL, pipette mixed and incubated for 5 minutes at room temperature. A standard blood smear was performed on all samples. A coverslip was placed on top of the sample immediately following the blood smear to prevent sample drying out. Cells were imaged using the fluorescence setting on an Echo Revolve™ microscope. AO is a pH-sensitive cationic dye. When bound to double-stranded DNA (for example, in the nuclear compartment), the dye fluoresces green with an excitation maximum at 502 nm and emission maximum at 525 nm. When bound to single stranded DNA and RNA (for example, in the cytoplasm) or when the dye is in an acidic environment (for example, in lysosomes), the dye fluoresces red with an excitation maximum at 460 nm and emission maximum at 650 nm. […] Between five to seven different fields of view were captured. Images were analyzed using Image J and the number of platelets present in each field of view was manually counted. Error bars indicate standard deviation of the data set.
To investigate the ability of citric acid to reverse platelet clumping, venipuncture blood samples were collected into EDTA and LiHep blood collection tubes as described above. […] A second 15 μL fraction of LiHep blood was treated with citric acid at a final concentration of 5 mM. To encourage platelet declump, samples were then vortexed. Samples were stained using acridine orange and imaged using an Echo Revolve™ Microscope at 20× magnification. Images were analyzed using Image J and the number of platelets present in each field of view (FOV) across 10 FOVs was manually counted.
Venipuncture blood samples were collected into EDTA and LiHep blood collection tubes as described above. A 15 μL aliquot of LiHep blood was treated with 5 mM NTA an vortexed vigorously.

[2] = tested on: platelets in venipuncture and fingerstick blood; assay: Platelet clumping after blood collection into anticoagulant tubes; conditions: venipuncture and fingerstick blood collected in anticoagulant tubes
From the text: Blood used in the following examples came from either venipuncture or fingerstick samples. Standard phlebotomy practices were followed to collect donor venipuncture blood in either BD Vacutainer′ EDTA blood collection tubes or BD Vacutainer′ PST lithium heparin plasma separation blood collection tubes. Standard phlebotomy practices were followed to collect donor fingerstick blood in either LiHep SAFE-T-FILL™ tubes or EDTA SAFE-T-FIL™tubes. All blood samples were stored at room temperature until use. Samples were analyzed within 12 hours of blood collection.
Platelet clumping appeared to occur spontaneously following blood collection. For all studies, an EDTA control sample was used in which blood from either venipuncture or fingerstick were collected into EDTA tubes. EDTA venipuncture control samples were collected into EDTA blood collection tubes from the same donor using the same port as the lithium heparin samples.

[3] = tested on: platelet clumps in LiHep blood samples; assay: Platelet count per field of view in blood smears of LiHep blood, Azure B stain; conditions: for recovery of platelet counts: FIG. 3, fingerstick LiHep blood, vortexed, Azure B
Protocol: A series of anti-coagulants are tested for their respective effect in reversing platelet clumping formed in blood samples. Fresh fingerstick blood samples were collected into EDTA and LiHep blood collection tubes as described above. Concentrated EDTA was dried for at least one hour at room temperature in microcentrifuge tubes using a vacuum drying oven. Immediately following collection, a 200 uL fraction of the LiHep sample (“LiHep+EDTA”) was passed through two separate EDTA SAFE-T-FIL™ capillary tubes for a double exposure to the EDTA anticoagulant resulting in a final concentration of about 8.8 mM EDTA in blood Another 200 uL fraction (“LiHep+TruEDTA”) was added to the previously prepared vacuum-dried EDTA resulting in a final concentration of 20 mM EDTA in blood. At 30 minutes post collection, another 200 uL fraction of the LiHep sample (“LiHep+EDTA 30 min”) was passed through two separate EDTA SAFE-T-FILL™ capillary tubes for a double exposure to the EDTA anticoagulant. All samples were pulse vortexed with three, five-second bursts at the maximum vortex setting immediately following addition to EDTA. At 30 minutes post collection, all samples were then stained using an Azure B solution from the Differential Quik Stain™ Kit (Modified Giemsa) from Polysciences, Inc. Azure B was added to blood sample at a 1:1 ratio and pipette mixed. A standard blood smear was performed on all samples. Cells were imaged using the bright field setting on an Echo Revolve™ microscope at 20× magnification. Between six to seven different fields of view were captured. Images were analyzed using Image J and the number of platelets present in each field of view was manually counted. Error bars indicate standard deviation of the data set.
Particularly, fresh fingerstick blood samples were collected into EDTA and LiHep blood collection tubes as described above. Concentrated EDTA was dried for at least one hour at room temperature in microcentrifuge tubes using a vacuum drying oven. […] Images were analyzed using Image J and the number of platelets present in each field of view was manually counted. […]

[4] = tested on: white blood cells; assay: White blood cell morphology, AO stain, fluorescence microscopy; conditions: FIG. 2, fingerstick LiHep blood, 60 M EDTA, 3×EDTA sample 60 mM
Protocol: Next, it was examined whether EDTA exposure impacts blood cell morphology. Particularly, fresh fingerstick blood samples were collected into EDTA and LiHep blood collection tubes. Concentrated EDTA was dried for at least one hour at room temperature in microcentrifuge tubes using a vacuum drying oven. A 200 uL fraction of the LiHep sample (“1×”) was added to the previously prepared vacuum-dried EDTA resulting in a final concentration of 20 mM EDTA in blood. Another 200 uL fraction of the LiHep sample (“3×”) was added to the previously prepared vacuum-dried EDTA resulting in a final concentration of 60 mM EDTA in blood. […] Cells were imaged using the fluorescence setting on an Echo Revolve microscope. […] To capture the green fluorescence of AO, which labeled the nuclei of white blood cells, a blue LED light source with excitation filter at 470/40 nm was paired with emission filter at 525/50 nm, with a dichroic mirror at 495 nm. To capture the red fluorescence of AO, which labeled the cytoplasmic compartments of white blood cells, the same blue LED light source was paired with emission filter at 635/60 nm with a dichroic mirror at 600 nm. […]
Particularly, fresh venipuncture blood samples were collected into EDTA and LiHep blood collection tubes as described above. […] Cells were imaged using the fluorescence setting on an Echo Revolve™ microscope. […]

O=C(O)CN(CC(=O)O)CC(=O)O [NTA, N,N-bis(carboxymethyl)glycine]
declumping activity / increase in platelet count due to reversal of platelet clumping [1]: showed declumping activity; also recorded: increase in platelet count | recovery of platelets ([1]; FIG. 8, venipuncture LiHep blood, 5 mM NTA, vortexed vigorously, 10 FOVs): 71%

Lithium heparin
platelet clumping following blood collection [2]: Significant amount of platelet clumping

O=C(O)CC(O)(CC(=O)O)C(=O)O [citric acid, 2-hydroxypropane-1,2,3-tricarboxylic acid]
declumping activity / increase in platelet count due to reversal of platelet clumping [1]: increase in platelet count | declumping activity / increase in platelet count due to reversal of platelet clumping ([1]; listed as Citric acid): showed declumping activity | recovery of platelet counts ([1]; FIG. 7, venipuncture LiHep blood, citric acid 5 mM, vortexed, 10 FOVs): 66%

O=C(O)CN(CCN(CC(=O)O)CC(=O)O)CC(=O)O [EDTA, ethylenediaminetetraacetic acid]
recovery of platelet counts ([3]; 17.6 mM EDTA (LiHep+EDTA)): greater than 40% | recovery of platelet counts ([3]; 20 mM EDTA (LiHep+TruEDTA)): greater than 40% | reversed platelet clumping as compared to control groups ([3]; FIG. 3 legend, blood collected in LiHep tubes): about 40% | platelet clumping following blood collection [2]: no detectible platelet clumping | morphology of white blood cells [4]: negatively impact
